Here are results for three molecules from US20100047191A1, “NOVEL USE” (priority 2007, published 2010).

Assay [1] can be described thus: 20-day in vitro erosion cycling study (microhardness). Further details: species or system human. The source says:
Human enamel specimens (3×3 mm) were ground and polished using silicon carbide paper. The top side of the specimens was ground using 1200-grit paper and then serially polished using 4000-grit paper followed by […] diamond polishing suspension. Each specimen was mounted on the end of an acrylic rod (¼″ diameter×2″ long) using superglue. The sides of each specimen were covered with an epoxy resin so that only the enamel surface was exposed. Eighteen specimens per group were used for the study. Each group was composed of 3 subgroups of 6 specimens. Initial hardness of the sound specimens was determined using a Vickers hardness indenter by applying a load of 200 g for 15 seconds. The average specimen microhardness was determined from four indentations on the surface of each specimen. Only specimens with a sound surface hardness of between 300 and 350 were accepted. A 50:50 mixture of pooled, human saliva and a mineral solution was used as the remineralisation medium in all treatment regimens, and the demineralising solution was 1% citric acid, pH 3.8. The four treatments considered were: Group A) Deionised water, Group B) 300 ppm Fluoride, Group C) 0.50 wt % ZnO in deionized water, Group D) 0.50 wt % ZnO in 300 ppm Fluoride. […] The cyclic treatment regimen consisted of five, two-minute acid challenges in the demineralizing solution and three, two-minute treatment periods (with stirring at 350 rpm). After each treatment, the specimens were rinsed with running deionized water and then placed back into the saliva remineralization system. This regimen was repeated for 10 days, after which time the specimens were analysed by remeasuring their microhardness. A further 10 days of cycling was then performed and a 20 day microhardness value measured.
Statistical analysis of the data above in Graph 4 was performed with a one-way analysis of variance using Sigma Stat (3.0) Software. ANOVA indicated a significant difference so pair wise comparisons between the groups was conducted (Student Newman Keuls test).

Assay [2] is described as follows: Enamel anti-caries softening microhardness study (lactic acid buffer). The conditions noted are these: two cycles of 2 minute treatment and two hours 0.1M lactic acid buffer pH 4.5. Further details: species or system human. The protocol: The study performed involved incubation of human enamel in 0.1M lactic acid buffer (pH 4.5), following a 2 minute treatment with one of the following four formulations: (A) 0.5% suspension of nano ZnO. […] (D) de-ionised water. The zinc oxide used was Nanoshield ZN-3008C as described above in Example 4. Specimens were washed with water in between treatments and erosion procedures. The acid exposure time was two hours, after which the specimens were rinsed in de-ionised water and re-treated with the appropriate formulation for 2 minutes. The specimens then were placed into the lactic acid for a further two hours. After the acid challenge they were washed thoroughly with de-ionised water and the microhardness measured. Six indents were obtained for each enamel specimen and each treatment was performed on six individual specimens (n=6).
The values for enamel hardness have been normalised relative to the individual baseline microhardness values, thus data at subsequent time points reflects softening of the enamel. The error bars in Graph 9 represent standard deviations.

For assay [3] the following is noted: repeated acidic erosive challenges; placebo 13.9 μm; cited from earlier work.
Assay [4] is described as follows: Hydroxyapatite microplate erosion method (phosphate release after 1% citric acid, pH 3.8). The conditions noted are these: Example 7. As for the experimental part: The wells of 96-well 200 μl microplates were filled with a concentrated suspension of high resolution hydroxyapatite (HA) powder (20 g HA in 200 ml acetone). The plates were allowed to dry under agitation (50 rpm on an orbital shaker) and then washed thoroughly with deionised water to remove any loose HA. For erosion experiments, the wells of the HA coated microplates were filled with deionised water and left to hydrate for 60 mins. The water was then removed and each of the 8 wells of one lane of the microplate filled with 200 μl of one of the agents to be tested. Each plate contained 12 lanes, so 6 agents could be tested in duplicate (at n=8) in each microplate. The actives were left in the wells for 30 mins under agitation, after which time the plates were again washed thoroughly with deionised water. The erosive challenge used for the study was an orange juice mimic, 1% citric acid, pH 3.8. The wells of the plate were exposed to 200 μl of the citric acid solution under agitation for 30 mins. After the acid challenge, 50 μl of the citric acid was removed from each well and placed into the corresponding well of a new 96-well microplate. 50 μl of vanadomolybdate reagent was then added to each well and after 5 mins, the absorbance of the solution in each well at 450 nm was read using a microplate plate reader. The test agents assessed using this technique were nanoparticulate zinc oxide aqueous suspension, 0.5 wt % in water, stabilised with both anionic and cationic dispersants (Nanoshield ZN-3008C and Nanoshield ZN-3014A respectively, both 70 nm average particle size and obtained from Nanophase Technologies, 1319 Marquette Drive, Romeoville, Ill. 60446. USA).
The chart contains data from one microplate, where treatments have been carried out in duplicate at n=8 each time, as described above. […] The positive control used was 300 ppm fluoride, and the negative control was deionised water.
An additional experiment was performed as described in Example 4, where the stabilising agent for the nanoparticulate zinc oxide (0.5 wt % suspension in water) was sodium hexametaphosphate (HMP) present in an amount of 2 wt % with respect to the zinc oxide (ie present in an amount of 0.01 wt %). […] The nanoparticulate zinc oxide was tested in the presence and absence of fluoride again, and at two different pH values (pH 7 and pH 9).
The experiments were performed as described in Example 4 above, using one side of a hydroxyapatite microplate (n=8). The test agents assessed in this case were a) 0.5 wt % Nanoshield ZN-3008C in water, b) 0.5 wt % zinc acetate, c) 0.5 wt % zinc citrate and d) 0.5 wt % zinc oxide (bulk material). […] Positive and negative controls used were 225 ppm fluoride and deionised water respectively.
A final hydroxyapatite microplate experiment was performed as described in Examples 4 and 5 where the stabilising agent for the nanoparticulate zinc oxide was either polyvinyl pyrrolidone (PVP) or Propylene glycol. […] The nanoparticulate zinc oxide was tested in the presence of fluoride in each case.

The conditions of assay [5]: acidic acetate buffer at pH 4.5; cited from earlier work.
The mark [6] stands for this setting: 0.5 wt % in 225 ppm fluoride solution, Graph 6.
Setting [7] is: 0.5 wt % in deionised water, no fluoride, Graph 5.

Each structure is given as a SMILES string.

As for `[F-].[Na+]` [300 ppm F, sodium fluoride], in assay [1] (10 days cycling), the “Change at 10 days (microhardness vs lesion baseline, mean)” value is given as −64.6. Besides, in assay [1] (10 days cycling: five 2-min 1% citric acid challenges and three 2-min treatments daily, saliva remineralisation), the “Post 10 days (Vickers microhardness, mean)” value was determined as 189.5. In assay [1] (20 days cycling), the “Change at 20 days (microhardness vs lesion baseline, mean)” value is on record as −20.1 and the “Post 20 days (Vickers microhardness, mean)” value is recorded as 234.0. The “protection from the lactic acid buffer challenge” value in assay [2] is reported as “approximately 70%”. In assay [2] (n=6), the “% VHN compared to baseline, After treatment/acid challenge” value was found to be 70%.
Regarding `O=C([O-])CC(O)(CC(=O)[O-])C(=O)[O-].O=C([O-])CC(O)(CC(=O)[O-])C(=O)[O-].[Zn+2].[Zn+2].[Zn+2]` [Zinc citrate, zinc citrate], the “depth of complete mineral loss” value in assay [3] is listed as 10.7 μm. For the same molecule, in assay [4] (setting [6]), the “preventing the demineralisation of hydroxyapatite, combination with 225 ppm fluoride compared with 225 ppm fluoride alone” value is listed as “statistically inferior to fluoride alone” and the “preventing the demineralisation of hydroxyapatite, combination with 225 ppm fluoride compared with water” value was “statistically superior to water”.
For the molecule `CC(=O)[O-].CC(=O)[O-].[Zn+2]` [zinc acetate], in assay [5], the “decreasing acid dissolution of hydroxyapatite, compared with sodium fluoride” value is “almost as effective as sodium fluoride”. Also, the “preventing the demineralisation of hydroxyapatite, combination with 225 ppm fluoride compared with 225 ppm fluoride alone” value in assay [4] (setting [6]) was “directionally superior but statistically equivalent to 225 ppm fluoride alone”. Further, in assay [4] (setting [7]), the “preventing demineralisation of hydroxyapatite, compared with water” value was “statistically superior to water”; the “preventing the demineralisation of hydroxyapatite, compared with 225 ppm fluoride” value was “statistically inferior to both the stabilised nanoparticulate zinc oxide and 225 ppm fluoride”.
